Laboratory results from patent US20260217828A1, “IMMUNE CHECKPOINT BLOCKADE THERAPY FOR TREATING STAPHYLOCOCCUS AUREUS INFECTIONS” (priority 2023, published 2026).

System: bioluminescent MRSA (USA300 LAC::lux)
Assay: Transtibial implant-associated osteomyelitis in C57BL/6 mice, treated with sabatolimab or saline placebo
Format: in vivo, Staphylococcus aureus
Settings: vs saline placebo
Procedure: (FIG. 7A) Schematic illustration of the experimental design. 8-week-old C57BL/6 mice were subjected to transtibial implant-associated osteomyelitis using bioluminescent MRSA (USA300 LAC::lux) and treated with sabatolimab or a saline placebo control. The concentration of anti-TIM-3 mAb used in the study is also outlined.
Similar assays were carried out to examine the efficacy trend of immune checkpoint blockade drug Sabatolimab (anti-TIM-3) in reducing S. aureus burden due to implant-associated osteomyelitis.
Briefly, 8-week-old C57BL/6 mice were subjected to transtibial implant-associated osteomyelitis using bioluminescent MRSA (USA300 LAC::lux). The mise were then treated with sabatolimab or a saline placebo control. The concentration of anti-TIM-3 mAb used in the study was also outlined in FIG. 7A.

Substance: sabatolimab: immune checkpoint blockade drug Sabatolimab (anti-TIM-3)
- in vivo S. aureus growth (longitudinal BLI) (8-week-old C57BL/6 mice, MRSA USA300 LAC::lux, n=9-10, ANOVA p<0.05): significantly decreased
- disease severity by terminal ex vivo CFU on the tibia and internal organs (heart, liver, kidneys, and spleen) (C57BL/6 mice, day 14 post-surgery, n=9-10, t-test p<0.05): lower disease severity
